Reference: patent US20190202885A1, “TauT (taurine transporter) peptide cancer vaccine” (priority 2017, published 2019)
Where no end group is shown, it is not given here.

Experiments:
p53^+/− mice = assay: TauT-peptide vaccination of p53+/− mice: tumor development and lifespan; assay type: in vivo
Procedure: FIG. 2A and FIG. 2B. TauT-peptide vaccination prolongs p53^+/− mice lifespan. To evaluate the efficacy of TauT-peptide as a cancer vaccine, p53^+/− (C57BL/6J background) were injected with either TauT-peptide (100 μg/kg) or vehicle only at the age of 4 weeks and boosted 2 weeks later (n=15 for each group). All mice were observed daily for signs of morbidity and the development of tumors. The p53^+/− control mice started to develop tumor (mainly osteosarcoma) at the age of 186 day (FIG. 2A). The median lifespan for p53^+/− control mice was 315 days (FIG. 2B), which consistent with other studies. […] TauT-peptide vaccination delayed tumor develops in all vaccinated p53^+/− mice, which started to develop tumor (mainly osteosarcoma) and died at the age of 526 days (FIG. 2A).
TauT-peptide (SEQ ID NO 3) was coupled to KLH with a kit (Imject SuperCarrier EDC system for Peptides; Pierce). To test TauT-peptide vaccine, p53 knockout (KO) mice were immunized with 100 μg/kg and boosted with an equal amount of antigen 2 weeks late. To develop and test TauT-Ab, wild type control mice were immunized with 100 μg/kg TauT-peptide and boosted with an equal amount of antigen 2 weeks late. Mice were bled on Days 21 and 36 to measure the antibody response. Antisera were collected on Day 49 and purified by affinity column chromatography (Pierce). Antisera were stored at −80° C. Specificity of the antibody was determined by Western blot analysis (10).

p53^−/− mice = assay: TauT-peptide vaccination of p53−/− mice: tumor development and lifespan; assay type: in vivo
Procedure: To evaluate the efficacy of TauT-peptide as a cancer vaccine, p53^−/− (C57BL/6J background) were injected with either TauT-peptide (100 μg/kg) or vehicle only at the age of 4 weeks and boosted 2 weeks later (n=12 for each group). All mice were observed daily for signs of morbidity and the development of tumors.
To test TauT-peptide vaccine, p53 knockout (KO) mice were immunized with 100 μg/kg and boosted with an equal amount of antigen 2 weeks late. […] Mice were bled on Days 21 and 36 to measure the antibody response.
To evaluate the efficacy of TauT-peptide as a cancer vaccine, p53 null (C57BL/6J background) were injected with either TauT-peptide (100 μg/kg) or vehicle only at the age of 4 weeks and boosted 2 weeks later (n=12 for each group). All mice were observed daily for signs of morbidity and the development of tumors.

[1] = p53+/− mice, 100 μg/kg at 4 weeks of age, boosted 2 weeks later, n=15
[2] = p53−/− mice, 100 μg/kg at 4 weeks of age, boosted 2 weeks later
[3] = p53−/− mice, 100 μg/kg at 4 weeks of age, boosted 2 weeks later, n=12

TauT-peptide vaccine: TauT-peptide (SEQ ID NO 3) comprising amino acid residues 313-326 of TauT (SLC6A6), coupled to KLH, used as peptide vaccine (GSYNKYKYNSYRDC; also: coupled to KLH carrier, site not given here)
response to the vaccine (p53^+/− mice; p53+/− mice vaccinated): 100% | age at which mice started to develop tumor (mainly osteosarcoma) and died (p53^+/− mice; [1]): 526 days | median lifespan (p53^+/− mice; [1]): 621 days | response to the vaccine (p53^−/− mice; p53−/− mice vaccinated): 100% | age at which mice started to develop tumor (mainly lymphoma) and died (p53^−/− mice; [2]): 6.3 months | lifespan (p53^−/− mice; [2]): 6.9 months | age at which mice started to develop tumor (mainly lymphoma) (p53^−/− mice; [3]): 189 days | median lifespan (p53^−/− mice; [3]): 207 days | increase of (median) lifespan versus control (p53^−/− mice; p53−/− mice, vaccinated vs vehicle control): 1.5 fold
